How the values were obtained:
[1] = system: DLD-1; experiment: MTS assay, DLD-1 cells; format: cell-based; conditions: Homo sapiens, 72 hours, read-out: DLD-1, MTS cell kill % inhibition
Procedure: (§1) Cells were maintained at 37° C., 5% CO2 in DMEM media supplemented with 1% fetal bovine serum, penicillin/streptomycin and fungizone (Invitrogen). Cells were seeded into 96-well tissue culture plates at 3000 per well and cultured at 37° C. for 18 hours. Test compounds were dissolved and diluted to 300× in DMSO then diluted 1:40 in DMEM. Cells were incubated with test compounds for 72 hours followed by incubation with tetrazolium compound (3-(4,5-dimethylthiazol-2-yl)-5-(3-carboxymethoxyphenyl)-2-(4-sulfophenyl)-2H-tetrazolium, inner salt; MTS) and the electron coupling reagent, phenazine methosulfate (PMS) for 4 hours. […] The ability of compounds to inhibit cell growth in this assay is correlated with the reduction of dehydrogenase enzyme activity found in metabolically active cells. The measurement of the absorbance of the formazan was assessed using an ENVISION™ (Perkin Elmer) microplate reader at 492 nm. The calculated IC50 value is the concentration of the test compound that causes a 50% decrease in the absorbance.

[2] = system: KATO III; experiment: MTS assay, KATO III cells; format: cell-based; conditions: Homo sapiens, 72 hours, read-out: KATO III, MTS cell kill % inhibition
Procedure: as §1

[3] = system: MDA-MB-231; experiment: MTS assay, MDA-MB-231 cells; format: cell-based; conditions: Homo sapiens, 72 hours, read-out: MDA-MB-231, MTS cell kill % inhibition
Procedure: as §1

[4] = system: NCI-H1299; experiment: MTS assay, NCI-H1299 cells; format: cell-based; conditions: Homo sapiens, 72 hours, read-out: NCI-H1299, MTS cell kill % inhibition
Procedure: as §1

[5] = target: IGF-1R (Homo sapiens, UniProt P08069); experiment: IGFR1 activity assay (ELISA); format: biochemical; conditions: read-out: IGF-1R, PCT INH (30 μM), ELISA
Sequence of IGF-1R (P08069 31-1367): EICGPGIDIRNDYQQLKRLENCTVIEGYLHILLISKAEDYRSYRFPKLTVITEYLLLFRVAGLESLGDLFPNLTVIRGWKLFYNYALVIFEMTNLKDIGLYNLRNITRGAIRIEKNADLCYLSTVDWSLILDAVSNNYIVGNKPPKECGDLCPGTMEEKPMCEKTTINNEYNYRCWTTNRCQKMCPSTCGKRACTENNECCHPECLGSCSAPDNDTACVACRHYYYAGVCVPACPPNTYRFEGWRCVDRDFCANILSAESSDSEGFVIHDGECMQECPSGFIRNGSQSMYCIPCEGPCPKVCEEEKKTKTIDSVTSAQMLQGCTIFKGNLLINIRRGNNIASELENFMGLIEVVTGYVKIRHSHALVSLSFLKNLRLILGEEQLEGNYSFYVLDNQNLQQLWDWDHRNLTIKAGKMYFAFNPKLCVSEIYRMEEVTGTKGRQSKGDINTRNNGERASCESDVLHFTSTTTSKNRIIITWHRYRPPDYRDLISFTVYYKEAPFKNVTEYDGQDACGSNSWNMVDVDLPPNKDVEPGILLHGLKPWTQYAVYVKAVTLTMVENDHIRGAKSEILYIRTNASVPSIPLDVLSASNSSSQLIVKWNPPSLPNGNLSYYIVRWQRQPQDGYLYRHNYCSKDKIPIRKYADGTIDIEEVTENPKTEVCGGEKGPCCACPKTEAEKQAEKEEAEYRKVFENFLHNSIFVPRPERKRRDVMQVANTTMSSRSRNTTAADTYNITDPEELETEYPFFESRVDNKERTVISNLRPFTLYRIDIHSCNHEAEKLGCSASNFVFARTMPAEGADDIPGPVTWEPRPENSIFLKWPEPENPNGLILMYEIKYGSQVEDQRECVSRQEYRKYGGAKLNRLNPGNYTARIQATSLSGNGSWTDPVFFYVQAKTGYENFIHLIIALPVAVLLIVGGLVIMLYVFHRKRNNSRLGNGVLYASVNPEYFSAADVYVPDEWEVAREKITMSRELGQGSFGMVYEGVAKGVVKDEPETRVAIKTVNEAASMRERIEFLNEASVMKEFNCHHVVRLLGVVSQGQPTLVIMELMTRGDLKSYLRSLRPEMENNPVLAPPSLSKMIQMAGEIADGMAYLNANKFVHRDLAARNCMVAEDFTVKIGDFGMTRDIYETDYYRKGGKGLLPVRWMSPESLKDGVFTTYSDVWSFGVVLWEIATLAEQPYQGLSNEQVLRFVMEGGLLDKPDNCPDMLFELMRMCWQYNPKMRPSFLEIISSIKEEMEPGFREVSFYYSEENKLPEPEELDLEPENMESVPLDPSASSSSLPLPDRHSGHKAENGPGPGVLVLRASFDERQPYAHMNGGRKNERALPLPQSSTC
Procedure: The disclosed compounds were assayed for their ability to inhibit insulin-like growth factor receptor-1 (IGFR1). Nunc Maxisorb plates were coated with streptavidin by overnight incubation with 100 μL per well of 1 μg/ml Streptavidin in DPBS. Prior to the start of the experiment, the plates were washed with TBST (3×200 μL) and blocked for at least 1 hour by adding 150 μL of 5% BSA/TBST. The plates were washed with TBST (3×200 μL/well) and left to dry immediately before the capture step.
The disclosed test articles and controls (Staurosporine) were prepared using the following assay buffer at 3× desired final concentration (50 mM Tris-HCl, 0.02 mg/ml BSA, 10 mM MgCl2, 0.1 mM Na3VO4, 1 mM EGTA, 12.5 μM ATP, 0.01% NP-40, 1 mM DTT in 10% glycerol/water). 20 μL of the test compounds (or control), 20 μL IGF1R (0.33 ng/μL final concentration), and 20 μL of Pyk-2 (0.05 ng/μL final concentration) were rapidly added to the reaction plate. The plate was incubated at room temperature for one hour.
50 μL was transferred from the reaction plate to the streptavidin coated plate. The capture plate was incubated at room temperature for 30 minutes, then washed with TBST three times. 100 μL/well of Cell Signaling anti-phospho tyrosine was added to the capture plate at a dilution of 1:3000 in 2% BSA/TBST. The plate was incubated for one hour at room temperature then washed 6× with TBST. 100 μL/well of alkaline phosphatase tagged goat anti mouse antibody was added to the capture plate at a dilution of 1:4000 in 2% BSA/TBST. The plate was incubated for one hour at room temperature then washed with TBST six times.
The fluorescent readout is initiated by the addition of 100 μL/well of Attophos reagent (6 mg/10 mL). The reading is done on the Perkin Elmer Envision system.

| SMILES | inhibition at 30 µM [5] | inhibition at 10 µM [1] | inhibition at 10 µM [2] | inhibition at 10 µM [3] | inhibition at 10 µM [4] |
| --- | --- | --- | --- | --- | --- |
| O=C(c1ccc2[nH]c(-c3ccc[nH]c3=O)c(-c3ccc(-c4ccccc4)cc3)c2c1)N1CCN(CCN2CCOCC2)CC1 [Compound 37, 3-(3-biphenyl-4-yl-5-{[4-(2-morpholin-4-ylethyl)piperazin-1-yl]carbonyl]-1H-indol-2-yl)pyridin-2(1H)-one] | 80 to 100% | 80 to 100% | 80 to 100% | 80 to 100% | 80 to 100% |
| O=C(NCCc1ccccn1)c1ccc2[nH]c(-c3ccc[nH]c3=O)c(-c3ccc(-c4ccccc4)cc3)c2c1 [Compound 39, 3-biphenyl-4-yl-2-(2-oxo-1,2-dihydropyridin-3-yl)-N-(2-pyridin-2-ylethyl)-1H-indole-5-carboxamide] | 50 to 79% | 80 to 100% | 80 to 100% | 80 to 100% | 80 to 100% |
| O=C(NCc1ccccc1)c1ccc2[nH]c(-c3ccc[nH]c3=O)c(-c3ccc(-c4ccccc4)cc3)c2c1 [Compound 40, N-benzyl-3-biphenyl-4-yl-2-(2-oxo-1,2-dihydropyridin-3-yl)-1H-indole-5-carboxamide] | < 50% | < 50% | < 50% | < 50% | 50 to 79% |
| O=C(c1ccc2[nH]c(-c3ccc[nH]c3=O)c(-c3ccc(-c4ccccc4)cc3)c2c1)N1CCN(Cc2ccccn2)CC1 [Compound 41, 3-(3-biphenyl-4-yl-5-{[4-(pyridin-2-ylmethyl)piperazin-1-yl]carbonyl}-1H-indol-2-yl)pyridin-2(1H)-one] | 50 to 79% | 80 to 100% | 80 to 100% | 50 to 79% | 80 to 100% |
| CCOC(=O)N1CCN(C(=O)c2ccc3[nH]c(-c4ccc[nH]c4=O)c(-c4ccc(-c5ccccc5)cc4)c3c2)CC1 [Compound 44, ethyl 4-{[3-biphenyl-4-yl-2-(2-oxo-1,2-dihydropyridin-3-yl)-1H-indol-5-yl]carbonyl}piperazine-1-carboxylate] | 50 to 79% | 50 to 79% | 80 to 100% | 80 to 100% | 80 to 100% |
| CN(C)CCCN(C)C(=O)c1ccc2[nH]c(-c3ccc[nH]c3=O)c(-c3ccc(-c4ccccc4)cc3)c2c1 [Compound 46, 3-biphenyl-4-yl-N-[3-(dimethylamino)propyl]-N-methyl-2-(2-oxo-1,2-dihydropyridin-3-yl)-1H-indole-5-carboxamide] | 80 to 100% | 80 to 100% | 80 to 100% | 80 to 100% | 80 to 100% |
| CN1CCC(N2CCN(C(=O)c3ccc4[nH]c(-c5ccc[nH]c5=O)c(-c5ccc(-c6ccccc6)cc5)c4c3)CC2)CC1 [Compound 50, 3-(3-biphenyl-4-yl-5-{[4-(1-methylpiperidin-4-yl)piperazin-1-yl]carbonyl}-1H-indol-2-yl)pyridin-2(1H)-one] | 50 to 79% | 80 to 100% | 80 to 100% | 80 to 100% | 80 to 100% |
| CN1CCN(C(=O)c2ccc3[nH]c(-c4ccc[nH]c4=O)c(-c4ccc(-c5ccccc5)cc4)c3c2)CC1 [Compound 52, 3-{3-biphenyl-4-yl-5-[(4-methylpiperazin-1-yl)carbonyl]-1H-indol-2-yl}pyridin-2(1H)-one] | 80 to 100% | 80 to 100% | 80 to 100% | 80 to 100% | 80 to 100% |
| Cc1ccccc1-c1c(-c2ccc[nH]c2=O)[nH]c2ccc(C(=O)NCCCN3CCOCC3)cc12 [Compound 58, 3-(2-methylphenyl)-N-(3-morpholin-4-ylpropyl)-2-(2-oxo-1,2-dihydropyridin-3-yl)-1H-indole-5-carboxamide] | 80 to 100% | < 50% | < 50% | < 50% | < 50% |
| O=C(NCCCN1CCOCC1)c1ccc2[nH]c(-c3ccc[nH]c3=O)c(-c3cc(F)ccc3F)c2c1 [Compound 60, 3-(2,5-difluorophenyl)-N-(3-morpholin-4-ylpropyl)-2-(2-oxo-1,2-dihydropyridin-3-yl)-1H-indole-5-carboxamide] | 80 to 100% | 50 to 79% | 80 to 100% | 50 to 79% | 80 to 100% |
| O=C(NCCCN1CCOCC1)c1ccc2[nH]c(-c3ccc[nH]c3=O)c(-c3ccc(F)c(F)c3)c2c1 [Compound 61, 3-(3,4-difluorophenyl)-N-(3-morpholin-4-ylpropyl)-2-(2-oxo-1,2-dihydropyridin-3-yl)-1H-indole-5-carboxamide] | 80 to 100% | 80 to 100% | 80 to 100% | 80 to 100% | 80 to 100% |
| O=C(NCCCN1CCOCC1)c1ccc2[nH]c(-c3ccc[nH]c3=O)c(-c3cccc(Cl)c3)c2c1 [Compound 62, 3-(3-chlorophenyl)-N-(3-morpholin-4-ylpropyl)-2-(2-oxo-1,2-dihydropyridin-3-yl)-1H-indole-5-carboxamide] | 80 to 100% | 80 to 100% | 80 to 100% | 80 to 100% | 80 to 100% |

Continued, in another order:

| inhibition at 30 µM [5] | SMILES | inhibition at 10 µM [1] | inhibition at 10 µM [2] | inhibition at 10 µM [3] | inhibition at 10 µM [4] |
| --- | --- | --- | --- | --- | --- |
| 80 to 100% | COc1cccc(-c2c(-c3ccc[nH]c3=O)[nH]c3ccc(C(=O)NCCCN4CCOCC4)cc23)c1 [Compound 63, 3-(3-methoxyphenyl)-N-(3-morpholin-4-ylpropyl)-2-(2-oxo-1,2-dihydropyridin-3-yl)-1H-indole-5-carboxamide] | 50 to 79% | 80 to 100% | 50 to 79% | 80 to 100% |
| 80 to 100% | COc1ccc(C(C)C)cc1-c1c(-c2ccc[nH]c2=O)[nH]c2ccc(C(=O)NCCCN3CCOCC3)cc12 [Compound 64, 3-(5-isopropyl-2-methoxyphenyl)-N-(3-morpholin-4-ylpropyl)-2-(2-oxo-1,2-dihydropyridin-3-yl)-1H-indole-5-carboxamide] | < 50% | < 50% | < 50% | < 50% |
| 80 to 100% | Cc1ccc(-c2c(-c3ccc[nH]c3=O)[nH]c3ccc(C(=O)NCCCN4CCOCC4)cc23)cc1F [Compound 67, 3-(3-fluoro-4-methylphenyl)-N-(3-morpholin-4-ylpropyl)-2-(2-oxo-1,2-dihydropyridin-3-yl)-1H-indole-5-carboxamide] | 50 to 79% | 80 to 100% | 50 to 79% | 80 to 100% |
| 80 to 100% | O=C(NCCCN1CCOCC1)c1ccc2[nH]c(-c3ccc[nH]c3=O)c(-c3ccc(F)cc3)c2c1 [Compound 68, 3-(4-fluorophenyl)-N-(3-morpholin-4-ylpropyl)-2-(2-oxo-1,2-dihydropyridin-3-yl)-1H-indole-5-carboxamide] | < 50% | < 50% | < 50% | 50 to 79% |
| 80 to 100% | O=C(NCCCN1CCOCC1)c1ccc2[nH]c(-c3ccc[nH]c3=O)c(-c3ccc(Cl)cc3)c2c1 [Compound 69, 3-(4-chlorophenyl)-N-(3-morpholin-4-ylpropyl)-2-(2-oxo-1,2-dihydropyridin-3-yl)-1H-indole-5-carboxamide] | < 50% | < 50% | 50 to 79% | < 50% |
| 80 to 100% | COc1ccc(-c2c(-c3ccc[nH]c3=O)[nH]c3ccc(C(=O)NCCCN4CCOCC4)cc23)cc1OC [Compound 73, 3-(3,4-dimethoxyphenyl)-N-(3-morpholin-4-ylpropyl)-2-(2-oxo-1,2-dihydropyridin-3-yl)-1H-indole-5-carboxamide] | < 50% | < 50% | < 50% | < 50% |

— US8410144B2, “Substituted indolo-pyridinone compounds” (ArQule, Inc., priority 2009, dated 2013)
